In patent publication US7955847B2, “Method for enhancing leukocyte immune function” (priority 2004, dated 2011):

Tested on: leukocyte NADPH oxidase (cytochrome b558)
Test: Cell surface expression of cytochrome b558 (NADPH oxidase) by flow cytometry with antibody 7D5
Format: cell-based, human
Conditions: leukocytes from X91-CGD patient; 2 hrs treatment; anti-cytochrome b558 antibody 7D5, flow cytometry
Protocol: Blood samples with EDTA were obtained from patients with X91-chronic granulomatous disease. The samples were water bathed at 37° C. in a lysate buffer containing ammonium chloride, sodium carbonate and EDTA for several minutes to lyze residual red blood cells. The samples were then added with a suspension buffer containing globulin and EDTA to wash and remove the residual lysate buffer. The leukocytes were collected by centrifugation and counted.
Total leukocytes were maintained in RPMI 1640 medium supplemented with 10% heat-inactivated FBS at 37° C. under a humidified atmosphere (5% CO2+95% air). The leukocytes were seeded at a density of 3 to 5×10^5/ml and grown for 2 hrs in the presence or absence of 100 nM cofactor FAD and/or thapsigargin (100 nM or 1 μM). The cells were then cultured in 10% RPMI to recover for 1 hr prior to the following experiments.
To test whether the treatment with thapsigargin or cofactor FAD alone or in combination has effects on the cell surface expression of leukocyte NADPH oxidase, the cell surface expressions of cytochrome b558 in leukocytes with or without desired treatment were assayed. Leukocytes were prepared as illustrated in Example 1. The leukocytes, at the concentration of 5×10^5 cells/ml, were incubated with anticytochrome b558 monoclonal antibody (7D5) at 4° C. for 30 min, followed by incubation with FITC-labeled goat anti-mouse IgG for 40 min.

SMILES | cell surface NADPH oxidase expression
C/C=C(/C)C(=O)O[C@H]1C(C)=C2[C@H]([C@@H]1OC(=O)CCCCCCC)[C@@](C)(OC(C)=O)C[C@H](OC(=O)CCC)[C@@]1(O)[C@H]2OC(=O)[C@@]1(C)O [thapsigargin] | slightly enhanced
Cc1cc2nc3c(=O)[nH]c(=O)nc-3n(C[C@H](O)[C@H](O)[C@H](O)COP(=O)(O)OP(=O)(O)OC[C@H]3O[C@@H](n4cnc5c(N)ncnc54)[C@H](O)[C@@H]3O)c2cc1C [cofactor FAD, flavin adenine dinucleotide] | slightly enhanced
